US20090149554A1, “WATER-SOLUBLE METAL ALCOHOLATE DERIVATIVES, PRODUCTION METHODS THEREOF, AND SOLID GELATINOUS EXTERNAL PREPARATIONS CONTAINING THE SAME” (SHISEIDO CO., LTD., priority 2005, published 2009)
Like-named read-outs stand apart in the source and are kept apart here.

Columns and labels:
[1] = Solubility of polyhydric alcohol substituted silane derivatives in various solvents; assay type: physicochemical; settings: summary of Table 1
Method: Subsequently, the present inventors evaluated the solubility of the thus obtained polyhydric alcohol substituted silane derivatives in various solvents.
The evaluation of solubility was conducted by adding a polyhydric alcohol substituted silane derivative into various solvents so that the concentration would be 5 weight %, mixing and stirring at room temperature, allowing them to stand still, and visually observing the solution state. The evaluation criteria were as follows.

[2] = Gelation ability in aqueous solution (visual); assay type: physicochemical; settings: room temperature
Method: (§1) In order to investigate the gelation ability of the above-described polyhydric alcohol substituted silane derivatives in water, the present inventors visually evaluated the progress of gelation for the 1,3-butylene glycol substituted compound and glycerin substituted compound.
(§2) The gelation ability was evaluated by adding the polyhydric alcohol substituted silane derivative to water or KGM medium to obtain various concentrations, mixing and stirring at room temperature, allowing the solution to stand still, and visually observing the gelation.

[3] = Gelation ability in KGM medium (visual); assay type: physicochemical; settings: room temperature
Method: as §1, §2

[4] = Gel formation on mixing the product with the same amount of water; assay type: physicochemical
Method: . Then, the mixture was mixed with stirring at room temperature for 48 hours. After the solid catalyst was separated by filtration, ethanol and acetonitrile were distilled away under reduced pressure, and 4.0 g of transparent viscous liquid was obtained.

[5] = biological target: T1, papain (Carica papaya, UniProt P00784); assay: Stabilization of papain enzyme activity in solid gel on storage; assay type: biochemical
T1 sequence (P00784 134-345): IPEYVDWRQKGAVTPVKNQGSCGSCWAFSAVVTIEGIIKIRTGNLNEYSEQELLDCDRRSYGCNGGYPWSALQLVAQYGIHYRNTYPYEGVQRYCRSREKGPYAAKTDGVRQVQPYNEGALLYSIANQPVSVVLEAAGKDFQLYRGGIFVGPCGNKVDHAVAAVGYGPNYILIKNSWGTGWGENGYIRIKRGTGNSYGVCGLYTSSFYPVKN
Method: Into 1 g of water, 0.2 g of the propylene glycol substituted silane derivative, (Si—(OCH2CH2CH2OH)4), was dissolved. Into this solution, 0.2 mL of papain solution (4 μg/mL) was added and mixed, and the samples were charged on a 96-hole plate and allowed to stand for a fixed length of time. Similarly, several test samples were prepared, and they were maintained at various temperatures (0° C., 37° C., room temperature, and 50° C.). After 2 hours and after 3 days, the papain enzyme activity of each sample was measured. The enzyme activity was measured with a plate reader after the enzyme substrate, N-carbobenzoxy-phenylarginine-4-methylcoumarinamide (Z-PheArg-MCA), was directly added into the 96-hole plate and allowed to stand for 20 minutes at room temperature. In Comparative Example 5, the papain enzyme activity was measured in the same way as Example 21 except that the propylene glycol substituted silane derivative was not used.
The values of enzyme activity were standardized by setting the enzyme activity of the comparative example sample that had been stored at 0° C. for 2 hours to 100.0.

## CC(O)CCO[Si](OCCC(C)O)(OCCC(C)O)OCCC(C)O (stereo not drawn) [Si—(OCH2CH2CH2OHCH3)4]
[1]
  Solubility in other organic solvents: excellent solubility in other organic solvents
[2]; 10.0 % (wt/vol)
  Appearance (gelation): Colloidal turbidity, slight thickening after about 1 week
[2]; 20.0 % (wt/vol)
  Appearance (gelation): Colloidal turbidity, thickening after 2 days, translucent
[2]; 30.0 % (wt/vol)
  Appearance (gelation): Colloidal turbidity, gelation after 2 days, seeping-out
[3]; 2.9 % (wt/vol)
  Appearance (gelation): Transparent solution, slight thickening after 2 hours, pasty
[3]; 5.3 % (wt/vol)
  Appearance (gelation): Transparent solution, gelation after 1 hour, some
[3]; 10.4 % (wt/vol)
  Appearance (gelation): Transparent solution, gelation after 12 minutes, some
[3]; 19.6 % (wt/vol)
  Appearance (gelation): Transparent solution, gelation (ringing gel) after 2
[3]; 35.4 % (wt/vol)
  Appearance (gelation): Transparent solution, gelation (ringing gel) after 1 minute
[4]
  Result of mixing the product with the same amount of water: homogeneous transparent gel

## OCCCO[Si](OCCCO)(OCCCO)OCCCO [Si—(OCH2CH2CH2OH)4]
[1]
  Solubility in other organic solvents: excellent solubility in other organic solvents
[4]; room temperature
  Result of mixing the product with the same amount of water: homogeneous transparent gel

## OCCO[Si](OCCO)(OCCO)OCCO [tetra(2-hydroxyethoxy)silane]
[4]; room temperature
  Result of mixing the product with the same amount of water: homogeneous transparent gel

## OCC(O)CO[Si](OCC(O)CO)(OCC(O)CO)OCC(O)CO (stereo not drawn) [Glycerin substituted silane derivative, Si—(O—CH2—CHOH—CH2—OH)4]
[2]; 10.0 % (wt/vol)
  Appearance (gelation): Transparent, thickening after about 1 week, agar-like soft
[2]; 20.0 % (wt/vol)
  Appearance (gelation): Translucent low-viscosity gel after 1 day, some
[2]; 30.0 % (wt/vol)
  Appearance (gelation): Gelation after 1 day, some seeping-out ringing gel
[3]; 2.5 % (wt/vol)
  Appearance (gelation): Transparent solution, slight thickening after 2 hours, pasty
[3]; 5.6 % (wt/vol)
  Appearance (gelation): Transparent solution, gelation after 3 hours, some
[3]; 11.0 % (wt/vol)
  Appearance (gelation): Transparent solution, gelation after 1 hour, some
[3]; 21.0 % (wt/vol)
  Appearance (gelation): Transparent solution, gelation (ringing gel) after 30
[3]; 35.0 % (wt/vol)
  Appearance (gelation): Transparent solution, gelation (ringing gel) after 30
[4]; room temperature
  Result of mixing the product with the same amount of water: homogeneous transparent gel

B1: Comparative Example 5: papain sample prepared as Example 21 except that the propylene glycol substituted silane derivative was not used (protein, UniProt P00784 134-345, looked up)
Papain: IPEYVDWRQKGAVTPVKNQGSCGSCWAFSAVVTIEGIIKIRTGNLNEYSEQELLDCDRRSYGCNGGYPWSALQLVAQYGIHYRNTYPYEGVQRYCRSREKGPYAAKTDGVRQVQPYNEGALLYSIANQPVSVVLEAAGKDFQLYRGGIFVGPCGNKVDHAVAAVGYGPNYILIKNSWGTGWGENGYIRIKRGTGNSYGVCGLYTSSFYPVKN
[5]; After 2 hours, 0° C.
  Papain enzyme activity (standardized, Comparative Example 5 at 0° C. for 2 hours = 100.0): 100.0
[5]; After 2 hours, 37° C.
  Papain enzyme activity (standardized, Comparative Example 5 at 0° C. for 2 hours = 100.0): 98.3
[5]; After 2 hours, 50° C.
  Papain enzyme activity (standardized, Comparative Example 5 at 0° C. for 2 hours = 100.0): 67.1
[5]; After 2 hours, Room temperature
  Papain enzyme activity (standardized, Comparative Example 5 at 0° C. for 2 hours = 100.0): 96.5
[5]; After 3 days, 0° C.
  Papain enzyme activity (standardized, Comparative Example 5 at 0° C. for 2 hours = 100.0): 98.9
[5]; After 3 days, 37° C.
  Papain enzyme activity (standardized, Comparative Example 5 at 0° C. for 2 hours = 100.0): 18.6
[5]; After 3 days, 50° C.
  Papain enzyme activity (standardized, Comparative Example 5 at 0° C. for 2 hours = 100.0): 2.2
[5]; After 3 days, Room temperature
  Papain enzyme activity (standardized, Comparative Example 5 at 0° C. for 2 hours = 100.0): 34.5
